According to ChEMBL document CHEMBL1136399, “Anti-AIDS agents 54. A potent anti-HIV chalcone and flavonoids from genus Desmos” (Bioorg Med Chem Lett, 2003):
Values after ≈ are worked out from the molar mass of the structure shown.

How the values were obtained:
H9 [1] = assay: Effective concentration against HIV-1 replication in H9 lymphocytic cells; No suppression; type: functional, cell-based, Homo sapiens
H9 [2] = assay: Concentration that inhibits uninfected H9 cell growth by 50%.; type: functional, cell-based; conditions: Homo sapiens
H9 [3] = assay: Concentration that inhibits uninfected H9 cell growth by 50%.; Not dissolved; type: functional, cell-based, Homo sapiens
H9 [4] = assay: Effective concentration against HIV-1 replication in H9 lymphocytic cells; type: functional, cell-based; conditions: Homo sapiens
[5] = Therapeutic index determined by ratio of IC50 to EC50; conditions: read-out: Therapeutic index
H9 [6] = assay: Concentration that inhibits uninfected H9 cell growth by 50%.; Did not dissolve; type: functional, cell-based, Homo sapiens

| Compound | EC50 (H9 [1]) | IC50 (H9 [2]) | other results |
| --- | --- | --- | --- |
| COc1cc2oc(-c3ccccc3)cc(=O)c2c(O)c1O | Not Active | 11.5 µg/mL (≈ 40.5 µM) |  |
| Cc1c(O)c(C=O)c2oc(-c3ccccc3)cc(=O)c2c1O |  |  | IC50 (H9 [3]): Insoluble |
| COc1c(C)c(O)c(/C(O)=C/C(=O)c2ccccc2)c(O)c1C=O |  | 10.7 µg/mL (≈ 32.6 µM) | EC50 (H9 [4]): 0.022 µg/mL (≈ 0.067 µM); selectivity ratio [5]: 489 |
| Cc1c(O)c(C=O)c(O)c2c(=O)cc(-c3ccccc3)oc12 |  |  | IC50 (H9 [6]): Insoluble |
| COc1c(C)c(O)c(C=O)c2c1C(O)C[C@@H](c1ccccc1)O2 (stereo not given in full) | Not Active | 24.2 µg/mL (≈ 77 µM) |  |
| COc1c(C)c(O)c2c(c1C)O[C@H](c1ccccc1)CC2=O | Not Active | 1.77 µg/mL (≈ 5.93 µM) |  |
| Cc1c(O)c(C=O)c(O)c(/C(O)=C/C(=O)c2ccccc2)c1O | Not Active | 18.8 µg/mL (≈ 59.8 µM) |  |
| Cc1c(O)c(C=O)c2c(c1O)C(=O)C[C@@H](c1ccccc1)O2 | Not Active | 2.15 µg/mL (≈ 7.21 µM) |  |
| Cc1c(O)c(C=O)c(O)c2c1O[C@H](c1ccccc1)CC2=O |  | 104 µg/mL (≈ 349 µM) | EC50 (H9 [4]): 2.3 µg/mL (≈ 7.71 µM); selectivity ratio [5]: 45.2 |
| COc1c(C)c(O)c(C=O)c2c1C(=O)C[C@@H](c1ccccc1)O2 |  | 108 µg/mL (≈ 346 µM) | EC50 (H9 [4]): 11 µg/mL (≈ 35.2 µM); selectivity ratio [5]: 9.85 |
| Cc1c(O)c(C)c2c(c1O)C(=O)C[C@@H](c1ccccc1)O2 [DEMETHOXYMATTEUCINOL] |  | 20.8 µg/mL (≈ 73.2 µM) | EC50 (H9 [4]): 4.97 µg/mL (≈ 17.5 µM); selectivity ratio [5]: 4.18 |
| COC1=C(C)C(O)=C(C(=O)/C=C/c2ccccc2)C(=O)C1(C)C [DESMOSDUMOTIN C] | Not Active | 2.29 µg/mL (≈ 7.33 µM) |  |
| Cc1cn([C@H]2C[C@H](N=[N+]=[N-])[C@@H](CO)O2)c(=O)[nH]c1=O [ZIDOVUDINE] |  |  | EC50 (H9 [4]): 0.0221 µg/mL (≈ 0.0827 µM) |

Second part, led by results:

| EC50 (H9 [1]) | Compound | IC50 (H9 [2]) | other results |
| --- | --- | --- | --- |
| Not Active | CC1=C(O)C(C)(C)C2=C(C(=O)C[C@@H](c3ccccc3)O2)C1=O | 1.89 µg/mL (≈ 6.34 µM) |  |
| Not Active | COc1c(C)c(O)c2c(=O)cc(-c3ccccc3)oc2c1C | 19.8 µg/mL (≈ 66.8 µM) |  |
| Not Active | COc1c(C)c(O)c2c(c1C=O)O[C@@H](C)[C@H](C(=O)c1ccccc1)C2=O | 18.9 µg/mL (≈ 53.3 µM) |  |
| Not Active | COc1cc2oc(-c3ccccc3)cc(=O)c2c(O)c1OC [MOSLOFLAVONE] | 20.2 µg/mL (≈ 67.7 µM) |  |
